Results: patent US20010044151A1, “Ligands for modulating the expression of exogenous genes via an ecdysone receptor complex” (priority 1998, published 2001)

Assays:
[1] = target: T1, ecdysteroid receptor complex in Plodia interpunctella (IAL-PID2) nuclear extract (Plodia interpunctella, UniProt Q6RVD3); assay: Competitive 3H-ponasterone A binding assay, Plodia nuclear ecdysone receptor extract; details: 3H-ponasterone A displacement
T1 sequence (Q6RVD3 1-541): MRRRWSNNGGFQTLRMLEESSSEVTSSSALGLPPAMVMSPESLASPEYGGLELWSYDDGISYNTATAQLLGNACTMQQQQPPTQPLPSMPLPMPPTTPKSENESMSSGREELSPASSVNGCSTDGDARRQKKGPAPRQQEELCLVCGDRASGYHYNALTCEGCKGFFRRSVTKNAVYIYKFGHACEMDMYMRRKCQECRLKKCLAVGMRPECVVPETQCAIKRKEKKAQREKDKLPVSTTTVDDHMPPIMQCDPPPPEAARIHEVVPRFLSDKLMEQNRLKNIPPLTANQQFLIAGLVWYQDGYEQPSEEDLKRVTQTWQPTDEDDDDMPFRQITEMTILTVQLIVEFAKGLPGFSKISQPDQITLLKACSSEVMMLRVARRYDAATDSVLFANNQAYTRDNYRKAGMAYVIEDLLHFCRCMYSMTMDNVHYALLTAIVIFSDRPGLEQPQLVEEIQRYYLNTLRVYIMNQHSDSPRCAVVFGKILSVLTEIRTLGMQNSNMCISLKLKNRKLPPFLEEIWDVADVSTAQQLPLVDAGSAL
T1 sequence (Q6IVK1 1-415 partner): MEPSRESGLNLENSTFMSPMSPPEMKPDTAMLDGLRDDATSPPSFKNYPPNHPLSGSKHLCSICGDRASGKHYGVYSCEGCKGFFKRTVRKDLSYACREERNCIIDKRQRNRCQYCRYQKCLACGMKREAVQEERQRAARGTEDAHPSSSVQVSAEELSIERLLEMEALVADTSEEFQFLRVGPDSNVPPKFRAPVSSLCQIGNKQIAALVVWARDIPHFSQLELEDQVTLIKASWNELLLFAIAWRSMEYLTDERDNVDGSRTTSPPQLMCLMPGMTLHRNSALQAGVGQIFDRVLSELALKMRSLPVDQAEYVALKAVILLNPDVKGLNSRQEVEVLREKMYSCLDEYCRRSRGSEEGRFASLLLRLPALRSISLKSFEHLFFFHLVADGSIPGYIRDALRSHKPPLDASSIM
Experimental: The cell line IAL-PID2, derived from imaginal wing discs of the lepidopteran Plodia interpunctella was obtained from H. Oberlander and maintained as described (Lynn, E. E. and Oberlander, H., (1983), J. Insect Physiology, 29, 591-96). A 300 ml stationary phase culture of P. interpunctella cells was centrifuged at 700×g for 10 mm at room temperature to pellet the cells. The supernatant was aspirated and the cellular pellet resuspended in 35 ml TMT (TM buffer with 0.1% Triton X-100). The suspension was homogenized with twenty up and down strokes of a Dounce homogenizer on ice. Homogenate was incubated on ice for 10 minutes and then centrifuged for 15 min at 900×g. The pellet was resuspenced in 15 ml TM buffer and centrifuged at 2,300×g. This pellet was extracted in TMK buffer (TM buffer with 800 mM KCl) by using a glass rod to crush the pellet until a gelatinous slurry was formed and incubated on ice for 15 minutes. The extract was centrifuged at 100,000×g in a swinging bucket rotor for 60 minutes. The supernatant, which constituted the nuclear extract, was desalted on a 10 DG desalting column (Bio-Rad, 732-2010) equilibrated with T-buffer. The total protein concentration in the nuclear extract was adjusted to 5 mg per ml with T-buffer containing 1 mM DTT.
^3H ponasterone A, a potent phytoecdysteroid, (66,000 dpm; specific activity 170 Ci/mmole; NEN Life Science Products, Boston, Mass.) was mixed with 100 μl Kc cytosolic or Plodia nuclear ecdysone receptor extracts in […] glass test tubes in the absence or presence of 10 μM unlabelled 20-hydroxyecdysone (20E) to obtain an estimate of total or non-specific respectively, binding of tritiated ponasterone A. The tubes were vortexed and incubated overnight at 4° C. for Kc cytosolic extracts or 1.5 hours for Plodia nuclear extracts for binding reactions to reach equilibrium. At the end of equilibrium binding times, the bound tritiated ponasterone A was separated from the unbound by addition of ice-cold 600 μl or 300 μl dextran-coated charcoal solution (500 mg of Sigma HCL-washed activated charcoal, 50 mg Pharmacia Dextran T70, 50 ml T-buffer) to Kc or Plodia extracts, respectively. The tubes were vortexed briefly and centrifuged at 7,000×g to pellet the charcoal. The supernatant, 600 μl or 300 μl for Kc or Plodia extract reactions, respectively, containing tritiated ponasterone A bound to proteins, was aspirated into liquid scintillation vials containing 5 ml scintillation cocktail (ReadySafe®, Beckmann) each The mixture was vortexed and the amount of total or non-specifically bound radioactivity measured in a Beckmann LS500 liquid scinitllation counter with a 60% counting efficiency for tritium.
(§1) The concentrations of competitors that inhibited 50% of tritiated ponasterone A binding (IC50) was determined by incubating Kc or Plodia nuclear extracts or extracts of bacteria producing CfEcR(CDEF)-GST and CfUSP-GST fusions proteins with ^3H-ponasterone A (66,000 dpm per reaction) in the presence of a range of concentrations (0.1 nM to 10 μM) of test compounds. In the case of binding reactions using bacterial fusion proteins, 20 or one μl extract of bacteria producing CfEcR(CDEF)-GST or CfUSP-GST fusion proteins, respectively, were included per binding reaction. The assay conditions and determination of total and non-specific binding was as described above. The volume of competitor in solvent, like that for 20E or solvent alone, was kept at 1% of total reaction volume by using a 100 fold concentrated stock solution (i.e. a 100 fold dilution of stock solutions). The remainder of the assay was as described above. Each reaction was carried out in duplicate per concentration per test compound. Specific binding of ^3H-ponasterone A was determined by subtracting non-specific binding (that obtained in the presence of 10 μM 20E) from total (no competitor) or competed radioactivity bound. […]

[2] = target: CfEcR(CDEF)-GST and CfUSP-GST fusion proteins; assay: Competitive 3H-ponasterone A binding assay, bacterial GST fusion proteins; design: species or system Choristoneura fumiferana; details: bacterial CfEcR(CDEF)-GST/CfUSP-GST extracts, 3H-ponasterone A displacement
From the text: Bacterial glutathion-S-transferase (GST) fusion proteins of the spruce budworm (Choristoneura fumiferana) EcR (CfEcR), containing CDEF domains only, and ultraspiracle protein (CfUSP) were also used in radioligand displacement assays. cDNA encoding the CDEF domains of CfEcR were constructed following PCR amplification using primers that contain BamH1 and EcoRI sites (Perera S C, M Sundaram, Krell P J, Retnakaran A, Dhadialla T S, S R Palli, 1999 Arch. Insect Biochem. Physiol. 41 In Press). The PCR produce was digested with BamHI and EcoRI and cloned into pGEX-3X vector obtained from Pharmacia Biotech. CfUSP coding region was amplified using primers that contain BamH1 and EcoRI sites and cloned into to pGEX-2T vector obtained from Pharmacia Biotech. E. coli transformed with each of the two vectors were grown and induced to produce the fusion proteins as detailed in the Pharmacia Biotech GST-technical bulletin.
as §1, with “compound.” for “compound. Specific binding of ^3H-ponasterone A was determined by subtracting non-specific binding (that obtained in the presence of 10 μM 20E) from total (no competitor) or competed radioactivity bound.”

Structure (SMILES)	Plodia log(1/IC50) [1]	Bacterial CfECR log(1/IC50) [2]
COc1cccc(C(=O)NN(C(=O)c2cc(C)cc(C)c2)C(C)(C)C)c1C(C)C [Ligand 11]	8.93	–
CCOc1cccc(C(=O)NN(C(=O)c2cc(C)cc(C)c2)C(C)(C)C)c1C [Ligand 6]	8.82	–
CCc1c(C(=O)NN(C(=O)c2cc(C)cc(C)c2)C(C)(C)C)ccc2c1OCCO2 [Ligand 7]	8.78	–
CCc1c(OC)cccc1C(=O)NN(C(=O)c1cc(C)cc(Cl)c1)C(C)(C)C [Ligand 10]	8.80	–
COc1cccc(C(=O)NN(C(=O)c2cc(Cl)cc(Cl)c2)C(C)(C)C)c1C [Ligand 9]	9.00	–
Cc1cc(C)cc(C(=O)N(NC(=O)c2cccc(O)c2C)C(C)(C)C)c1 [Ligand 14]	–	8.61
Cc1cc(CO)cc(C(=O)N(NC(=O)c2cccc(O)c2C)C(C)(C)C)c1 [Ligand 15]	–	8.49
